The first assay deals with Human MPZ. Nature of the assay: Phage display library screening (Example 2, Python script analysis), binding to Human MPZ. The note with it: combined unique sequence count, Python/R script analysis. The protocol: Phage display library screens were used to identify peptides that bind to target proteins (including specific laminin trimers) that are expressed in human nerves, as described in Table 3. These screens were also carried out to identify peptides that could bind selectively to nerves versus muscle. Such peptides could therefore be useful for systemic in-vivo labeling of nerves during fluorescence assisted surgery. Specifically, m 13 phage libraries expressing 7 or 12 random amino acid peptides, or a cyclic peptide CX7C, on the N-terminus of the minor coat protein pIII (New England Biolabs; NEB) were processed through multiple rounds of selection for binding to target proteins expressed in nerves, or to excised human nerves, nerve extracts, or muscle, as described further below.
Human MPZ, sequence (P25189 30-153 limits assumed): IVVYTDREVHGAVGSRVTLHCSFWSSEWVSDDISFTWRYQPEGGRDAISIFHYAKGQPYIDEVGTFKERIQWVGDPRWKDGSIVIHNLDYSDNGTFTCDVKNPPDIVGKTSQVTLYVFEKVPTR
For screening against the specified target proteins in Table 1, including LN211, LN411, LN421, and LN521, the phage library was processed by up to 4 binding and wash cycles. For selection, phage libraries were incubated for up to 24 hours at 4° C. in 96 well plates that had been coated with one of the target proteins. Plates were then washed with PBS and phage were eluted using 0.2M glycine pH 2.0. Phage supernatants where then neutralized with Tris pH 9.0 prior to plating on TGI bacteria and LB agar plates. Colonies were counted to determine titer followed by DNA preparation of pools of phage and NextGen sequencing. After rounds of selection, phage were pooled and amplified for iterative selection. Phage that were bound at each round were sequenced. NextGen sequencing of pools after 2, 3 and 4 rounds of selection was used to isolate candidate sequences that were analyzed further to identify those that specifically bound each unique target protein.
Python Script Analysis: For all NEB sequence datasets, a python script was used to translate, trim, and filter the peptide sequences. The script translated the nucleotide sequences, translating amber codons as glutamine in peptide sequences, and then trimmed the end sequences that come from the vector. Secondly, the script combined the unique counts of trimmed peptides with identical sequences. […] Another python script was used to group peptides from different assays according to protein target (Myelin Protein Zero, Myelin Proteolipid Protein, Myelin Basic Protein, and Nidogen-2) and also combine the unique sequence counts for each peptide. An R script was written to merge the peptide sequences from different data files and determine peptides specific for each protein target but absent from different protein binding datasets. Peptide sequences were ranked by unique sequence count.
Human Myelin PLP (human), sequence (P60201 2-277 limits assumed): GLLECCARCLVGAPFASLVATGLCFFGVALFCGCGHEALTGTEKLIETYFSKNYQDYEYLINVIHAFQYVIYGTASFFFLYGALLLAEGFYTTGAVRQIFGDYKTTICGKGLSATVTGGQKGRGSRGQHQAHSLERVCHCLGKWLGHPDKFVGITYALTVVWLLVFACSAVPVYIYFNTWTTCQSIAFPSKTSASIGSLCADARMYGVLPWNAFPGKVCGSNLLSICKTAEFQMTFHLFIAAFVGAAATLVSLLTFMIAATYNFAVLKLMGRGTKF
Turning to “ADNVLRRALENI (Human MPZ-binding peptide)”, the Count is reported as 49.
With ALPISYL (Human MPZ-binding peptide), the Count worked out at 42.
As to AMSNLSY (Human MPZ-binding peptide), the Count is recorded as 45.
On the same count and under the same terms, with AWTMRAS (Human MPZ-binding peptide) the figure was 39; with “AYLEDWRSMSTR (Human MPZ-binding peptide)”, 46.
Same read-out and setting: with CDIKDANSC (Human MPZ-binding peptide) the figure was 38.
Regarding CEDRQRSMC (Human MPZ-binding peptide), the Count was found to be 40.
Still for that read-out and setting: with CERIGPREC (Human MPZ-binding peptide) the figure was 39.
For CGEKIMSLC (Human MPZ-binding peptide), the Count was determined as 40.
As to CIKGEDNQC (Human MPZ-binding peptide), the Count is 38.
The same measure, in the same setting: with CLKQQTGDC (Human MPZ-binding peptide) the figure was 37; with CPDAARNSC (Human MPZ-binding peptide), 43.
Take CQKWFTFAC (Human MPZ-binding peptide): the Count is 39.
On to CRVGVTSAC (Human MPZ-binding peptide), for which the Count was found to be 41.
For the substance CSNALNKAC (Human MPZ-binding peptide), the Count came out at 39.
Still for that read-out and setting: with CYSSVADMC (Human MPZ-binding peptide) the figure was 43; with DRYLLNQ (Human MPZ-binding peptide), 40; with FALPAGL (Human MPZ-binding peptide), 41.
Same read-out and setting: with FEHMAVT (Human MPZ-binding peptide) the figure was 42; with FMSDVDH (Human MPZ-binding peptide), 37.
On to FPSYTIS (Human MPZ-binding peptide), for which the Count was 40.
Turning to FRVTQTA (Human MPZ-binding peptide), the Count is reported as 41.
For FSPRDVS (Human MPZ-binding peptide), the Count was 39.
For the substance FSTTGRG (Human MPZ-binding peptide), the Count amounted to 39.
Same read-out and setting: with “GEWRARIDQDVS (Human MPZ-binding peptide)” the figure was 65; with GGSKVWG (Human MPZ-binding peptide), 40.
Turning to GLWRHTM (Human MPZ-binding peptide), the Count was found to be 40.
On the same count and under the same terms, with “GMVSPHHSVYRH (Human MPZ-binding peptide)” the figure was 51.
In the case of GPVVSGM (Human MPZ-binding peptide), the Count is given as 46.
GSWSSGF (Human MPZ-binding peptide): the Count worked out at 52.
In the case of HHPLFID (Human MPZ-binding peptide), the Count is on record as 39.
For the substance HLDSRRH (Human MPZ-binding peptide), the Count is reported as 46.
On to HNQLLYT (Human MPZ-binding peptide), for which the Count was 38.
With HPFPRFD (Human MPZ-binding peptide), the Count is reported as 45.
In the case of HPLMVPS (Human MPZ-binding peptide), the Count was 41.
Turning to IEQVGWR (Human MPZ-binding peptide), the Count is recorded as 38.
Turning to ISSVTVV (Human MPZ-binding peptide), the Count is recorded as 37.
For KLPTLSV (Human MPZ-binding peptide), the Count amounted to 44.
For the substance KQPAMEN, the Count came out at 37.
KRNLWDI (Human MPZ-binding peptide): the Count worked out at 40.
Same read-out and setting: with KTPILAS (Human MPZ-binding peptide) the figure was 38; with LISPTAR (Human MPZ-binding peptide), 37; with LPAESHW (Human MPZ-binding peptide), 45.
As to LPNANNL (Human MPZ-binding peptide), the Count is 41.
Turning to LSPPRIM (Human MPZ-binding peptide), the Count turned out to be 43.
On to LVLQTTP (Human MPZ-binding peptide), for which the Count is listed as 37.
For LVLSNPR (Human MPZ-binding peptide), the Count came out at 46.
With LVNPFPE (Human MPZ-binding peptide), the Count came to 39.
In the case of LWAKRDA (Human MPZ-binding peptide), the Count came to 38.
Take MIHTRQT (Human MPZ-binding peptide): the Count came out at 41.
In the case of MYHDSVS (Human MPZ-binding peptide), the Count is on record as 47.
With NASVPPK (Human MPZ-binding peptide), the Count worked out at 42.
On the same count and under the same terms, with “NGAYSLAIRYTS (Human MPZ-binding peptide)” the figure was 53; with NMSHSNR (Human MPZ-binding peptide), 46.
In the case of NPISPRN (Human MPZ-binding peptide), the Count worked out at 38.
Still for that read-out and setting: with NPTSEGA (Human MPZ-binding peptide) the figure was 37.
As for NTASMTT (Human MPZ-binding peptide), the Count was 38.
With QIAHLEY (Human MPZ-binding peptide), the Count worked out at 50.
SAHSVVE (Human MPZ-binding peptide): the Count worked out at 38.
With SETESYM (Human MPZ-binding peptide), the Count came to 41.
Turning to SGHGAFR (Human MPZ-binding peptide), the Count is 42.
On to SNALSYF (Human MPZ-binding peptide), for which the Count is reported as 41.

A further assay concerns the target Human Myelin PLP (human) (UniProt P60201). Nature of the assay: phage display, NGS count.
Conditions: not given
On to MKIMPMD (peptide), for which the Count was determined as 26.
In the case of MPHAPVQ (peptide), the Count came to 37.
NDASTVS (peptide) showed a Count of 28.
Still for that read-out and setting: with NIPSSIL (peptide) the figure was 33.
On to NVFSATP (peptide), for which the Count was determined as 31.
The same measure, in the same setting: with QLPRNNL (peptide) the figure was 28; with QPNMLKP (peptide), 33; with QRRSVIL (peptide), 31.
Consider RLQPEPT (peptide), for which the Count came out at 33.
The substance SALISTR (peptide) gave a Count of 32.
In turn, SAQSRSF (peptide) returned a Count of 26.
Substance SGLHYAL (peptide) gave a Count of 32.
Regarding SGVATYT (peptide), the Count came out at 31.
The substance SLNRGGA (peptide) gave a Count of 28.
Substance SLPGYRH (peptide) gave a Count of 28.
The substance SLPSLLP (peptide) gave a Count of 26.
SVEKYSK (peptide) registered a Count of 33.
In the case of SVLPDKL (peptide), the Count was found to be 28.
Turning to SVMWMTP (peptide), the Count amounted to 29.
SVVYQNS (peptide) came in with a Count of 26.
Take SWDVLEL (peptide): the Count is 31.
Still for that read-out and setting: with TDVEMVP (peptide) the figure was 40; with TFPERLR (peptide), 31.
Consider TGISSTP (peptide), for which the Count worked out at 27.
Turning to TKITPHR (peptide), the Count was found to be 29.
Substance TLWAQKT (peptide) registered a Count of 28.
The substance TMPIKAM (peptide) gave a Count of 27.
TQPRYPS (peptide) came in with a Count of 28.
In turn, TRASYPQ (peptide) had a Count of 32.
Consider TTTIADM (peptide), for which the Count was 26.
Take VFPERRV (peptide): the Count came to 28.
Substance VGYRSAS (peptide) gave a Count of 28.
In turn, VPGHISG (peptide) returned a Count of 27.
Take VRTSMNH (peptide): the Count was found to be 28.
VSASWMP (peptide): the Count was determined as 27.
On the same count and under the same terms, with VSSQEQA (peptide) the figure was 34; with VTGPGTP (peptide), 26; with VTPNKAR (peptide), 26.
WHYTPSM (peptide) had a Count of 26.
In turn, WNTADRL (peptide) gave a Count of 34.
Still for that read-out and setting: with WSPHGYK (peptide) the figure was 27; with WSPHRSF (peptide), 31.
For the substance WSRISVD (peptide), the Count is 26.
Substance YSDTYKH (peptide) displayed a Count of 30.
YSQAISA (peptide) returned a Count of 27.
Still for that read-out and setting: with YSSRLTA (peptide) the figure was 29.
Still for that read-out and setting: with YTWTPSR (peptide) the figure was 28.

Values taken from patent US20240207421A1, “NERVE TARGETING PEPTIDES AND METHODS OF USE” (ALUME BIOSCIENCES, INC., priority 2020, published 2024).
